Values after ≈ are worked out from the molar mass of the structure shown. Bounds are passed on as bounds.

For 13 compounds, zone of inhibition and MIC results are on record in ChEMBL document CHEMBL3994655, “Methylsulfonyl benzothiazoles (MSBT) derivatives: Search for new potential antimicrobial and anticancer agents” (2017).

One assay has as its system Escherichia coli. Kind of assay: Antibacterial activity against Escherichia coli ATCC 35421 assessed as zone of inhibition at 5 mg/ml by agar well diffusion method. The assay is classed as functional. As to conditions: read-out: DIZ.
As to `CCOc1ccc2sc(S(C)(=O)=O)nc2c1NC(=O)CCl`, the zone of inhibition at 5000 µg/mL was at most 7 mm.

As to `CCOc1ccc2sc(Cl)nc2c1`, the zone of inhibition at 5000 µg/mL is at most 7 mm.

As for `CCOc1ccc2sc(S(C)(=O)=O)nc2c1S(=O)(=O)NC`, the zone of inhibition at 5000 µg/mL is at most 7 mm.

With `CCOc1ccc2sc(S(C)(=O)=O)nc2c1S(=O)(=O)Cl`, the zone of inhibition at 5000 µg/mL was at most 7 mm.

For the compound `CCOc1ccc2sc(S(C)(=O)=O)nc2c1[N+](=O)[O-]`, the zone of inhibition at 5000 µg/mL was at most 7 mm.

For `CCCNS(=O)(=O)c1c(OCC)ccc2sc(S(C)(=O)=O)nc12`, the zone of inhibition at 5000 µg/mL is at most 7 mm.

For the compound `CCOc1ccc2sc(S(C)(=O)=O)nc2c1S(=O)(=O)N1CCO[C@H](COc2ccccc2)C1`, the zone of inhibition at 5000 µg/mL is at most 7 mm.

Regarding `CS(=O)(=O)c1nc2cc(OCc3ccc(-c4ccccc4)cc3)ccc2s1`, the zone of inhibition at 5000 µg/mL was at most 7 mm.

Take `CCOc1ccc2sc(S(C)(=O)=O)nc2c1`: the zone of inhibition at 5000 µg/mL was at most 7 mm.

With `CCOc1ccc2sc(S(C)(=O)=O)nc2c1NC(=O)CNCN1CCN(C(=O)OC(C)(C)C)CC1`, the zone of inhibition at 5000 µg/mL is at most 7 mm.

For `CCOc1ccc2sc(S(C)(=O)=O)nc2c1NC(=O)CN1CCOCC1`, the zone of inhibition at 5000 µg/mL is at most 7 mm.

Consider `CCNS(=O)(=O)c1c(OCC)ccc2sc(S(C)(=O)=O)nc12`, for which the zone of inhibition at 5000 µg/mL was at most 7 mm.

Another assay deals with Candida albicans. Put plainly: Antifungal activity against Candida albicans A01 assessed as zone of inhibition at 5 mg/ml by agar well diffusion method. The assay is classed as functional. As to conditions: read-out: DIZ. Background: A growth-free zone around the sample is the usual read-out of agar diffusion tests.
Regarding `CCOc1ccc2sc(S(C)(=O)=O)nc2c1NC(=O)CCl`, the zone of inhibition at 5000 µg/mL is at most 7 mm.

For `CCOc1ccc2sc(Cl)nc2c1`, the zone of inhibition at 5000 µg/mL is at most 7 mm.

For the compound `CCOc1ccc2sc(S(C)(=O)=O)nc2c1S(=O)(=O)NC`, the zone of inhibition at 5000 µg/mL is at most 7 mm.

Regarding `CCOc1ccc2sc(S(C)(=O)=O)nc2c1S(=O)(=O)Cl`, the zone of inhibition at 5000 µg/mL is at most 7 mm.

As for `CCOc1ccc2sc(S(C)(=O)=O)nc2c1[N+](=O)[O-]`, the zone of inhibition at 5000 µg/mL was at most 7 mm.

On to `CCCNS(=O)(=O)c1c(OCC)ccc2sc(S(C)(=O)=O)nc12`, for which the zone of inhibition at 5000 µg/mL was at most 7 mm.

Take `CCOc1ccc2sc(S(C)(=O)=O)nc2c1S(=O)(=O)N1CCO[C@H](COc2ccccc2)C1`: the zone of inhibition at 5000 µg/mL is at most 7 mm.

Take `CS(=O)(=O)c1nc2cc(OCc3ccc(-c4ccccc4)cc3)ccc2s1`: the zone of inhibition at 5000 µg/mL is at most 7 mm.

As to `CCOc1ccc2sc(S(C)(=O)=O)nc2c1`, the zone of inhibition at 5000 µg/mL was at most 7 mm.

Regarding `CCOc1ccc2sc(S(C)(=O)=O)nc2c1NC(=O)CNCN1CCN(C(=O)OC(C)(C)C)CC1`, the zone of inhibition at 5000 µg/mL was at most 7 mm.

In the case of `CCOc1ccc2sc(S(C)(=O)=O)nc2c1NC(=O)CN1CCOCC1`, the zone of inhibition at 5000 µg/mL is at most 7 mm.

As to `CCNS(=O)(=O)c1c(OCC)ccc2sc(S(C)(=O)=O)nc12`, the zone of inhibition at 5000 µg/mL is at most 7 mm.

A further assay has as its system Candida albicans. Kind of assay: Antifungal activity against Candida albicans A01 assessed as zone of inhibition at 1 mg/ml by agar well diffusion method. To be noted: read-out: DIZ. The format is functional.
As to `CCOc1ccc2sc(S(C)(=O)=O)nc2c1NC(=O)CCl`, the zone of inhibition at 1000 µg/mL was at most 7 mm.

In the case of `CCOc1ccc2sc(Cl)nc2c1`, the zone of inhibition at 1000 µg/mL was at most 7 mm.

Take `CCOc1ccc2sc(S(C)(=O)=O)nc2c1S(=O)(=O)NC`: the zone of inhibition at 1000 µg/mL is at most 7 mm.

In the case of `CCOc1ccc2sc(S(C)(=O)=O)nc2c1S(=O)(=O)Cl`, the zone of inhibition at 1000 µg/mL was at most 7 mm.

Turning to `CCOc1ccc2sc(S(C)(=O)=O)nc2c1[N+](=O)[O-]`, the zone of inhibition at 1000 µg/mL is at most 7 mm.

With `CCCNS(=O)(=O)c1c(OCC)ccc2sc(S(C)(=O)=O)nc12`, the zone of inhibition at 1000 µg/mL was at most 7 mm.

For `CCOc1ccc2sc(S(C)(=O)=O)nc2c1S(=O)(=O)N1CCO[C@H](COc2ccccc2)C1`, the zone of inhibition at 1000 µg/mL is at most 7 mm.

In the case of `CS(=O)(=O)c1nc2cc(OCc3ccc(-c4ccccc4)cc3)ccc2s1`, the zone of inhibition at 1000 µg/mL is at most 7 mm.

For `CCOc1ccc2sc(S(C)(=O)=O)nc2c1`, the zone of inhibition at 1000 µg/mL was at most 7 mm.

For the compound `CCOc1ccc2sc(S(C)(=O)=O)nc2c1NC(=O)CNCN1CCN(C(=O)OC(C)(C)C)CC1`, the zone of inhibition at 1000 µg/mL was at most 7 mm.

For the compound `CCOc1ccc2sc(S(C)(=O)=O)nc2c1NC(=O)CN1CCOCC1`, the zone of inhibition at 1000 µg/mL is at most 7 mm.

Regarding `CCNS(=O)(=O)c1c(OCC)ccc2sc(S(C)(=O)=O)nc12`, the zone of inhibition at 1000 µg/mL was at most 7 mm.

The test system of another assay is Escherichia coli. Kind of assay: Antibacterial activity against Escherichia coli ATCC 35421 assessed as zone of inhibition at 1 mg/ml by agar well diffusion method. The format is functional. To be noted: read-out: DIZ.
Regarding `CCOc1ccc2sc(S(C)(=O)=O)nc2c1NC(=O)CCl`, the zone of inhibition at 1000 µg/mL is at most 7 mm.

Take `CCOc1ccc2sc(Cl)nc2c1`: the zone of inhibition at 1000 µg/mL is at most 7 mm.

On to `CCOc1ccc2sc(S(C)(=O)=O)nc2c1S(=O)(=O)NC`, for which the zone of inhibition at 1000 µg/mL is at most 7 mm.

With `CCOc1ccc2sc(S(C)(=O)=O)nc2c1S(=O)(=O)Cl`, the zone of inhibition at 1000 µg/mL is at most 7 mm.

For `CCOc1ccc2sc(S(C)(=O)=O)nc2c1[N+](=O)[O-]`, the zone of inhibition at 1000 µg/mL was at most 7 mm.

In the case of `CCCNS(=O)(=O)c1c(OCC)ccc2sc(S(C)(=O)=O)nc12`, the zone of inhibition at 1000 µg/mL is at most 7 mm.

In the case of `CCOc1ccc2sc(S(C)(=O)=O)nc2c1S(=O)(=O)N1CCO[C@H](COc2ccccc2)C1`, the zone of inhibition at 1000 µg/mL is at most 7 mm.

For the compound `CS(=O)(=O)c1nc2cc(OCc3ccc(-c4ccccc4)cc3)ccc2s1`, the zone of inhibition at 1000 µg/mL was at most 7 mm.

In the case of `CCOc1ccc2sc(S(C)(=O)=O)nc2c1`, the zone of inhibition at 1000 µg/mL was at most 7 mm.

Consider `CCOc1ccc2sc(S(C)(=O)=O)nc2c1NC(=O)CNCN1CCN(C(=O)OC(C)(C)C)CC1`, for which the zone of inhibition at 1000 µg/mL was at most 7 mm.

With `CCOc1ccc2sc(S(C)(=O)=O)nc2c1NC(=O)CN1CCOCC1`, the zone of inhibition at 1000 µg/mL was at most 7 mm.

For the compound `CCNS(=O)(=O)c1c(OCC)ccc2sc(S(C)(=O)=O)nc12`, the zone of inhibition at 1000 µg/mL is at most 7 mm.

In a further assay the test system is Staphylococcus aureus. Kind of assay: Antibacterial activity against Staphylococcus aureus 209P assessed as zone of inhibition at 1 mg/ml by agar well diffusion method. The format is functional. To be noted: read-out: DIZ.
As to `CCOc1ccc2sc(S(C)(=O)=O)nc2c1NC(=O)CCl`, the zone of inhibition at 1000 µg/mL was at most 7 mm.

Turning to `CCOc1ccc2sc(Cl)nc2c1`, the zone of inhibition at 1000 µg/mL is at most 7 mm.

On to `CCOc1ccc2sc(S(C)(=O)=O)nc2c1S(=O)(=O)NC`, for which the zone of inhibition at 1000 µg/mL was at most 7 mm.

Regarding `CCOc1ccc2sc(S(C)(=O)=O)nc2c1S(=O)(=O)Cl`, the zone of inhibition at 1000 µg/mL is at most 7 mm.

As to `CCOc1ccc2sc(S(C)(=O)=O)nc2c1[N+](=O)[O-]`, the zone of inhibition at 1000 µg/mL is at most 7 mm.

`CCCNS(=O)(=O)c1c(OCC)ccc2sc(S(C)(=O)=O)nc12`: the zone of inhibition at 1000 µg/mL is at most 7 mm.

In the case of `CCOc1ccc2sc(S(C)(=O)=O)nc2c1S(=O)(=O)N1CCO[C@H](COc2ccccc2)C1`, the zone of inhibition at 1000 µg/mL was at most 7 mm.

Consider `CS(=O)(=O)c1nc2cc(OCc3ccc(-c4ccccc4)cc3)ccc2s1`, for which the zone of inhibition at 1000 µg/mL was at most 7 mm.

For the compound `CCOc1ccc2sc(S(C)(=O)=O)nc2c1`, the zone of inhibition at 1000 µg/mL was at most 7 mm.

`CCOc1ccc2sc(S(C)(=O)=O)nc2c1NC(=O)CNCN1CCN(C(=O)OC(C)(C)C)CC1`: the zone of inhibition at 1000 µg/mL is at most 7 mm.

Consider `CCOc1ccc2sc(S(C)(=O)=O)nc2c1NC(=O)CN1CCOCC1`, for which the zone of inhibition at 1000 µg/mL came to 9 mm.

For the compound `CCNS(=O)(=O)c1c(OCC)ccc2sc(S(C)(=O)=O)nc12`, the zone of inhibition at 1000 µg/mL is at most 7 mm.

Another assay concerns Staphylococcus aureus. Put plainly: Antibacterial activity against Staphylococcus aureus 209P assessed as zone of inhibition at 5 mg/ml by agar well diffusion method. The format is functional. As to conditions: read-out: DIZ.
As to `CCOc1ccc2sc(S(C)(=O)=O)nc2c1NC(=O)CCl`, the zone of inhibition at 5000 µg/mL is at most 7 mm.

On to `CCOc1ccc2sc(Cl)nc2c1`, for which the zone of inhibition at 5000 µg/mL is at most 7 mm.

For `CCOc1ccc2sc(S(C)(=O)=O)nc2c1S(=O)(=O)NC`, the zone of inhibition at 5000 µg/mL was at most 7 mm.

Consider `CCOc1ccc2sc(S(C)(=O)=O)nc2c1S(=O)(=O)Cl`, for which the zone of inhibition at 5000 µg/mL is at most 7 mm.

Consider `CCOc1ccc2sc(S(C)(=O)=O)nc2c1[N+](=O)[O-]`, for which the zone of inhibition at 5000 µg/mL amounted to 8 mm.

Regarding `CCCNS(=O)(=O)c1c(OCC)ccc2sc(S(C)(=O)=O)nc12`, the zone of inhibition at 5000 µg/mL was at most 7 mm.

For `CCOc1ccc2sc(S(C)(=O)=O)nc2c1S(=O)(=O)N1CCO[C@H](COc2ccccc2)C1`, the zone of inhibition at 5000 µg/mL was determined as 9 mm.

`CS(=O)(=O)c1nc2cc(OCc3ccc(-c4ccccc4)cc3)ccc2s1`: the zone of inhibition at 5000 µg/mL is at most 7 mm.

In the case of `CCOc1ccc2sc(S(C)(=O)=O)nc2c1`, the zone of inhibition at 5000 µg/mL stood at 8 mm.

Take `CCOc1ccc2sc(S(C)(=O)=O)nc2c1NC(=O)CNCN1CCN(C(=O)OC(C)(C)C)CC1`: the zone of inhibition at 5000 µg/mL was determined as 8 mm.

Take `CCOc1ccc2sc(S(C)(=O)=O)nc2c1NC(=O)CN1CCOCC1`: the zone of inhibition at 5000 µg/mL is at most 7 mm.

As for `CCNS(=O)(=O)c1c(OCC)ccc2sc(S(C)(=O)=O)nc12`, the zone of inhibition at 5000 µg/mL was at most 7 mm.

In a further assay the test system is Staphylococcus epidermidis. Kind of assay: Antibacterial activity against Staphylococcus epidermidis 209E after 24 to 48 hrs by macro-broth dilution method.
Conditions: not given
The format is functional. Background: Broth dilution looks for growth in wells or tubes with falling amounts of substance.
As for `O=C(O)c1cn(C2CC2)c2cc(N3CCNCC3)c(F)cc2c1=O` [CIPROFLOXACIN], the minimum inhibitory concentration (MIC) (as a rule, the least concentration at which growth counts as inhibited) came to 8 µg/mL (≈ 24.1 µM).

The next assay concerns Staphylococcus aureus. Kind of assay: Antibacterial activity against Staphylococcus aureus 209P after 24 to 48 hrs by macro-broth dilution method. The format is functional.
Conditions: not given
Compound `O=C(O)c1cn(C2CC2)c2cc(N3CCNCC3)c(F)cc2c1=O` [CIPROFLOXACIN] returned an MIC of 8 µg/mL (≈ 24.1 µM).
